In brackets after ≈: the same amount, converted by molar mass. Activity calls are given as the source filed them. The calls are words filed in the database; no cut-off is given here.
Assays:
[1] = test system: Escherichia coli; test: Antibacterial activity against Escherichia coli MTCC-119 after overnight incubation by two-fold broth dilution method; format: functional
[2] = test system: Staphylococcus aureus; details: MTCC-740
[3] = test system: Geotrichum; test: Antifungal activity against Geotrichum candidum MTCC-3993 after 24 to 72 hrs by broth dilution method; format: functional
[4] = Cytotoxicity against human HeLa cells assessed as cell survival at 20 uM after 24 hrs by MTT assay; format: cell-based; details: read-out: Survival
[5] = test system: Candida albicans; test: Antifungal activity against Candida albicans MTCC-227 after 24 to 72 hrs by broth dilution method; format: functional
[6] = test system: Candida tropicalis; test: Antifungal activity against Candida tropicalis MTCC-230 after 24 to 72 hrs by broth dilution method; format: functional
[7] = test system: Shigella flexneri; test: Antibacterial activity against Shigella flexneri MTCC-1457 after overnight incubation by two-fold broth dilution method; format: functional
[8] = test system: Aspergillus niger; test: Antifungal activity against Aspergillus niger MTCC-281 after 24 to 72 hrs by broth dilution method; format: functional
[9] = Cytotoxicity against human HeLa cells assessed as cell survival at 200 uM up to 24 hrs by MTT assay; format: cell-based; details: read-out: Survival
[10] = test system: Pseudomonas aeruginosa; test: Antibacterial activity against Pseudomonas aeruginosa MTCC-741 after overnight incubation by two-fold broth dilution method; format: functional
[11] = test system: Staphylococcus aureus; test: Antibacterial activity against Staphylococcus aureus MTCC-740 after overnight incubation by two-fold broth dilution method

SMILES | MIC [1] | MIC [2] | MIC [3] | viability at 24 h, 20 µM [4] | MIC [5] | MIC [6] | MIC [7] | MIC [8] | viability at 24 h, 200 µM [9] | MIC [10] | MIC [11]
O=C(c1cncnc1)c1cc(F)c(Cl)cc1O | > 100 µg/mL | inactive | 15 µg/mL (≈ 59.4 µM) | 98% | 46 µg/mL (≈ 182 µM) | 46 µg/mL (≈ 182 µM) | 50 µg/mL (≈ 198 µM) | 48 µg/mL (≈ 190 µM) | 84% | 70 µg/mL (≈ 277 µM) | –
Cc1ccc(O)c(C(=O)c2cncnc2)c1 | > 100 µg/mL | inactive | 40 µg/mL (≈ 187 µM) | – | 70 µg/mL (≈ 327 µM) | 54 µg/mL (≈ 252 µM) | 84 µg/mL (≈ 392 µM) | 55 µg/mL (≈ 257 µM) | – | 60 µg/mL (≈ 280 µM) | –
O=C(c1cncnc1)c1cc(F)ccc1O | > 100 µg/mL | inactive | 35 µg/mL (≈ 160 µM) | – | 28 µg/mL (≈ 128 µM) | 78 µg/mL (≈ 357 µM) | 78 µg/mL (≈ 357 µM) | > 100 µg/mL | – | > 100 µg/mL | –
O=C(c1cncnc1)c1cc(Cl)ccc1O | 68 µg/mL (≈ 290 µM) | inactive | 28 µg/mL (≈ 119 µM) | – | 35 µg/mL (≈ 149 µM) | > 100 µg/mL | 74 µg/mL (≈ 315 µM) | 50 µg/mL (≈ 213 µM) | – | 96 µg/mL (≈ 409 µM) | –
OC(Cn1cncn1)(Cn1cncn1)c1ccc(F)cc1F [FLUCONAZOLE] | – | – | 10 µg/mL (≈ 32.7 µM) | – | 20 µg/mL (≈ 65.3 µM) | 23 µg/mL (≈ 75.1 µM) | – | 45 µg/mL (≈ 147 µM) | – | – | –
O=C(c1cncnc1)c1ccccc1O | 64 µg/mL (≈ 320 µM) | inactive | 48 µg/mL (≈ 240 µM) | – | 34 µg/mL (≈ 170 µM) | > 100 µg/mL | 58 µg/mL (≈ 290 µM) | 70 µg/mL (≈ 350 µM) | – | 66 µg/mL (≈ 330 µM) | –
O=C(O)c1cn(C2CC2)c2cc(N3CCNCC3)c(F)cc2c1=O [CIPROFLOXACIN] | – | – | – | – | – | – | 1.2 µg/mL (≈ 3.62 µM) | – | – | 0.7 µg/mL (≈ 2.11 µM) | 1.6 µg/mL (≈ 4.83 µM)

Reference: ChEMBL document CHEMBL2440055, “Unusual transformation of substituted-3-formylchromones to pyrimidine analogues: synthesis and antimicrobial activities of 5-(o-hydroxyaroyl)pyrimidines” (Bioorg Med Chem Lett, 2013)
